Values quoted from earlier work in patent US20100215737A1, “COMBINATION PHARMACEUTICAL COMPOSITIONS” (priority 2007, published 2010).

Experiments:
[1] = system: subventricular zone and dentate gyrus cells; settings: young adult rats
[2] = system: endothelial nitric oxide synthase (eNOS); settings: mouse, in vivo
[3] = marketed formulations
[4] = relative to small intestine
[5] = human, in vivo
CYP = settings: concentration of up to 1 μM
PgP [6] = molecular target: T1, PgP (Homo sapiens, UniProt P08183)
T1 construct: PgP is found in the luminal plasma membrane of brain capillary endothelial cells (BCEC); host or cells: blood brain barrier / primary cultured BCEC
T1 sequence (P08183 whole entry): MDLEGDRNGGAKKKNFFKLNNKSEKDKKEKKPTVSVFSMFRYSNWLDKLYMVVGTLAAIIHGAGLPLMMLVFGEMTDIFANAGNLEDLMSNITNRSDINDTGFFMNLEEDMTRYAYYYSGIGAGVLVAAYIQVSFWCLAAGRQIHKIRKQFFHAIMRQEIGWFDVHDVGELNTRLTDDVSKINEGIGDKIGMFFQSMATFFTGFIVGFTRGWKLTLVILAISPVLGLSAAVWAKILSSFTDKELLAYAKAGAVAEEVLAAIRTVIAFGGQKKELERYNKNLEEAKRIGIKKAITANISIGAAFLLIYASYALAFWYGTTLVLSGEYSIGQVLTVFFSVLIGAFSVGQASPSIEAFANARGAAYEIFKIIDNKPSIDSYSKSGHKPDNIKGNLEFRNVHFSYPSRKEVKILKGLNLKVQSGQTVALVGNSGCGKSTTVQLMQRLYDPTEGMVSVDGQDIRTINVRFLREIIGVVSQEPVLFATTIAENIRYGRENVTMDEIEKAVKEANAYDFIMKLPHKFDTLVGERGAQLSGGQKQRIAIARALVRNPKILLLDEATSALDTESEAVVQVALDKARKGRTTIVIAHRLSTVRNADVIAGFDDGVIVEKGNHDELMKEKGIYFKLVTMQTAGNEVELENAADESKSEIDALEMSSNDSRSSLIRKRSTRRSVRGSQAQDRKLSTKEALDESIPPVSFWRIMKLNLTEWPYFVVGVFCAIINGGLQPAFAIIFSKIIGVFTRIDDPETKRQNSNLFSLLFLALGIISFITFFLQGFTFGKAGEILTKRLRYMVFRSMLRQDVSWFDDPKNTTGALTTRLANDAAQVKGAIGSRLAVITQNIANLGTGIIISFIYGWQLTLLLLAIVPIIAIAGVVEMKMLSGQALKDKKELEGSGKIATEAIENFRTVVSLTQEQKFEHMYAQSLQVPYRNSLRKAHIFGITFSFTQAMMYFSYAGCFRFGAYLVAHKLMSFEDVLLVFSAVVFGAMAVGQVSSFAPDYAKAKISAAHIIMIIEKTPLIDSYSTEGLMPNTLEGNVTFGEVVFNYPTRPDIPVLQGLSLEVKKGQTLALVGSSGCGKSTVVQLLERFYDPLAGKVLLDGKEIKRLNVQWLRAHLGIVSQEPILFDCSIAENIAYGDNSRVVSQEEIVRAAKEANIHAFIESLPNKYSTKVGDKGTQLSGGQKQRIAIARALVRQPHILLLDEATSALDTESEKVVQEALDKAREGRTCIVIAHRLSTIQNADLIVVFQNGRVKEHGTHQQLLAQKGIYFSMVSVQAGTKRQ

[7] = system: mdr-1a knockout and wild type mice; settings: mdr-1a knockout vs wild type mice, oral
[8] = system: permanent and transient focal ischemia; settings: >0.1 mg/kg iv immediately after onset of ischemia
[9] = system: transient global ischemia; settings: 1 mg/kg iv immediately after reperfusion
[10] = system: middle cerebral artery occlusion (MCO); settings: 0.32 to 1.0 mg/kg iv immediately after occlusion
[11] = system: ischemic damage in the rat cortex; settings: in vivo
global ischemic insult = settings: mice
peripheral nerve damage = settings: after peripheral nerve damage
APP holoprotein and mRNA = settings: 50 microM
[12] = system: middle cerebral artery occlusion; settings: single iv bolus 0.1 mg/kg immediately or 3 h after occlusion
transient focal ischemia = settings: in vivo
PgP [13] = molecular target: T1, PgP; settings: dose-depended effect

## NCCN(CCN)/[N+]([O-])=N/O [DETA/NONOate, (Z)-1-[N-(2-aminoethyl)-N-(2-ammonioethyl)amino]diazen-1-ium-1,2-diolate]
[1]
  cell proliferation and migration in the subventricular zone and the dentate gyrus: significantly increases cell proliferation and migration

## CC[C@H](C)C(=O)O[C@H]1CCC=C2C=C[C@H](C)[C@H](CC[C@@H]3C[C@@H](O)CC(=O)O3)[C@H]21 [Mevastatin]
[2]
  cerebral blood flow (CBF): augmented absolute CBF
  eNOS expression: increase in eNOS mRNA and protein levels

## COCCOC(=O)C1=C(C)NC(C)=C(C(=O)OC(C)C)C1c1cccc([N+](=O)[O-])c1 (stereo not drawn) [Nimodipine]
other
  solubility in water: practically insoluble in water
[3]
  bioavailability after oral administration, average: approximately 25%

## C=CC[C@@H]1/C=C(\C)C[C@H](C)C[C@H](OC)[C@H]2O[C@@](O)(C(=O)C(=O)N3CCCC[C@H]3C(=O)O[C@H](/C(C)=C/[C@@H]3CC[C@@H](O)[C@H](OC)C3)[C@H](C)[C@@H](O)CC1=O)[C@H](C)C[C@@H]2OC [Tacrolimus]
[4]
  ileum and colonic absorption efficiency: half that observed for the small intestine
[5]
  incidence of diabetes: 20 % of all patients
CYP
  effect on CYP activities: little detectable effect
PgP [6]
  affinity for PgP: ~0.1 µM
[7]
  blood concentrations: significantly higher
  concentration in brain tissue, fold higher: 10 fold
  total clearance, reduction: 66%
[8]
  ischemic brain damage: significant reduction in ischemic brain damage
[9]
  neuroprotective effect: long-lasting neuroprotective effects
[10]
  infarction area: dose-dependently reduced the infarction area
MCO; 1 mg/kg iv alone, 1, 2 or 3 h after occlusion
  neuroprotective effect, drug alone: neuroprotective effects when administered alone up to 1 h following occlusion
MCO; tacrolimus 1 mg/kg plus same dose of rt-PA iv
  brain damage, combination with rt-PA: significant reduction in brain damage was observed at up to 2 h following occlusion
[11]
  reduction of ischemic damage in the rat cortex: up to 70%
Global ischemic insult
  reduction of hippocampal damage: more than 80%
Peripheral nerve damage
  increase of axonal growth: 20%
APP holoprotein and mRNA
  increases in APP holoprotein and mRNA caused by PGE2 treatment: completely inhibited
[12]
  cortical brain damage: reducing cortical brain damage
  reductions of cerebral metabolic rate of oxygen and oxygen extraction function: significantly attenuated
Transient focal ischemia
  peptidyl-prolyl isomerase activity: blocked the increase in peptidyl-prolyl isomerase activity
  reduction of infarct size: 53%

## O=C(O)[C@H]1O[C@@H](Oc2cc3oc(-c4ccccc4)cc(=O)c3c(O)c2O)[C@H](O)[C@@H](O)[C@@H]1O [baicalin]
PgP [13]
  transport of nimodipine across the BBB: increased the transport of nimodipine across the BBB

## COc1ccc2cc3[n+](cc2c1OC)CCc1cc2c(cc1-3)OCO2 [berberine]
PgP [13]
  transport of nimodipine across the BBB: increased the transport of nimodipine across the BBB
